Each structure is given as a SMILES string. The source made the active and inactive calls. Some results are limits rather than exact numbers.

Series [1] relates to Hep 3B2. As to the kind of experiment: Induction of apoptosis in human Hep3B cells assessed as early apoptotic cells at 0.5 uM incubated for 48 hrs by annexin V-FITC/propidium iodide staining based flow cytometry analysis (reference value: 4.69%). The series is classed as functional. For orientation: In flow cytometry, cells or beads pass a laser one at a time.
Series [2] has as its system Hep 3B2. As to the kind of experiment: Induction of apoptosis in human Hep3B cells assessed as viable cells at 0.5 uM incubated for 48 hrs by annexin V-FITC/propidium iodide staining based flow cytometry analysis (reference value: 84.91%). The series is classed as functional. The note with it: read-out: Activity.
Series [3] can be described thus: Antiproliferative activity against human L02 cells assessed as inhibition of cell proliferation incubated for 72 hrs by MTT assay. The format is toxicity, cell-based. A general note: Tetrazolium dyes change colour on reduction, which living cells bring about.
Series [4] relates to Huh-7. As to the kind of experiment: Induction of apoptosis in human Huh-7 cells assessed as necrotic cells at 0.5 uM incubated for 48 hrs by annexin V-FITC/propidium iodide staining based flow cytometry analysis (reference value: 5.20%). The series is classed as functional.
Series [5] relates to Hep 3B2. As to the kind of experiment: Induction of apoptosis in human Hep3B cells assessed as necrotic cells at 0.5 uM incubated for 48 hrs by annexin V-FITC/propidium iodide staining based flow cytometry analysis (reference value: 5.20%). The series is classed as functional.
The test system of series [6] is Huh-7. As to the kind of experiment: Induction of apoptosis in human Huh-7 cells assessed as early apoptotic cells at 0.5 uM incubated for 48 hrs by annexin V-FITC/propidium iodide staining based flow cytometry analysis (reference value: 4.59%). The format is functional.
Series [7] has as its system Hep 3B2. As to the kind of experiment: Induction of apoptosis in human Hep3B cells assessed as late apoptotic cells at 0.5 uM incubated for 48 hrs by annexin V-FITC/propidium iodide staining based flow cytometry analysis (reference value: 5.20%). The series is classed as functional.
Series [8] deals with Huh-7. As to the kind of experiment: Induction of apoptosis in human Huh-7 cells assessed as viable cells at 0.5 uM incubated for 48 hrs by annexin V-FITC/propidium iodide staining based flow cytometry analysis (reference value: 84.91%). The series is classed as functional. The note with it: read-out: Activity.
The subject of series [9] is Huh-7. As to the kind of experiment: Induction of apoptosis in human Huh-7 cells assessed as late apoptotic cells at 0.5 uM incubated for 48 hrs by annexin V-FITC/propidium iodide staining based flow cytometry analysis (reference value: 5.20%). The format is functional.
Series [10] has as its target T1, Fibroblast growth factor receptor 1 (Homo sapiens, UniProt P11362). As to the kind of experiment: Inhibition of FGFR1 (unknown origin) incubated for 15 mins in presence of ATP.
Target sequence in this assay (P11362 whole entry): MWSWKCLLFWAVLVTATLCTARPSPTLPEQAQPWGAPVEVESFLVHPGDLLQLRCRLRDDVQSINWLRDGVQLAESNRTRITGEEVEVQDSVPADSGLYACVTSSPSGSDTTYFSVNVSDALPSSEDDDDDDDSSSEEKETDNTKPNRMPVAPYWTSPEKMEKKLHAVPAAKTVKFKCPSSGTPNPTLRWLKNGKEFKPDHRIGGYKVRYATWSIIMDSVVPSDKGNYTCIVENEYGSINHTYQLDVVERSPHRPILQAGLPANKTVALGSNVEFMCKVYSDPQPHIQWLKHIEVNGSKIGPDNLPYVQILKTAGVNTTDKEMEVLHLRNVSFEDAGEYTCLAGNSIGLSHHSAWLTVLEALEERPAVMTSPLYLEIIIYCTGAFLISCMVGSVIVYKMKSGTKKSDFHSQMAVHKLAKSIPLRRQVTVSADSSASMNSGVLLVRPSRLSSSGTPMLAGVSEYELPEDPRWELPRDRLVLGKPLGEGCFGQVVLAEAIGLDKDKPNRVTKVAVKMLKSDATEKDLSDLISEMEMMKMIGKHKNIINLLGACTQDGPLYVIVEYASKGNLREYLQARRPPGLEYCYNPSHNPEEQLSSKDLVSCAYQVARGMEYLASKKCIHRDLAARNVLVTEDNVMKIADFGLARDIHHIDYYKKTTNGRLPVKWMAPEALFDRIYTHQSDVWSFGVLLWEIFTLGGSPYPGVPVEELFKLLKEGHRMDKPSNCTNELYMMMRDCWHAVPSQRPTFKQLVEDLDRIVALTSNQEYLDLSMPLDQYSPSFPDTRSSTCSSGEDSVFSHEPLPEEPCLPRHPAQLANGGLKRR
The test system of series [11] is Huh-7. As to the kind of experiment: cells. The note with it: Homo sapiens, Huh-7, 72 h.
Description: Antiproliferative activity against human Huh-7 cells assessed as inhibition of cell proliferation incubated for 72 hrs by MTT assay
Series [12] has as its system MDA-MB-231. As to the kind of experiment: cells. The note with it: Homo sapiens, MDA-MB-231, 72 h.
Description: Antiproliferative activity against human MDA-MB-231 cells assessed as inhibition of cell proliferation incubated for 72 hrs by MTT assay
Series [13] relates to Hep 3B2. As to the kind of experiment: cells. The note with it: Homo sapiens, Hep3B, 72 h.
Description: Antiproliferative activity against human Hep3B cells assessed as inhibition of cell proliferation incubated for 72 hrs by MTT assay
A short description of series [14]: GSH reactivity in potassium phosphate buffer at pH 7.4 assessed as half life at 1 uM measured at 2 to 1440 mins by LC-MS/MS analysis. The format is physicochemical. The note with it: potassium phosphate buffer with GSH, time 2-1440 min.
The test system of series [15] is Huh-7. As to the kind of experiment: Antitumor activity against human Huh-7 cells xenografted in nude mouse assessed as tumor growth inhibition at 25 mg/kg, ip administered for 15 days. The format is functional. The note with it: Huh-7, 360 h, time 15 day, read-out: TGI.
The target in series [16] is Fibroblast growth factor receptor 4 (Homo sapiens) (UniProt P22455). The note with it: dose 100.0 nM.
Chain of Fibroblast growth factor receptor 4 (Homo sapiens) (P22455 22-802 limits assumed): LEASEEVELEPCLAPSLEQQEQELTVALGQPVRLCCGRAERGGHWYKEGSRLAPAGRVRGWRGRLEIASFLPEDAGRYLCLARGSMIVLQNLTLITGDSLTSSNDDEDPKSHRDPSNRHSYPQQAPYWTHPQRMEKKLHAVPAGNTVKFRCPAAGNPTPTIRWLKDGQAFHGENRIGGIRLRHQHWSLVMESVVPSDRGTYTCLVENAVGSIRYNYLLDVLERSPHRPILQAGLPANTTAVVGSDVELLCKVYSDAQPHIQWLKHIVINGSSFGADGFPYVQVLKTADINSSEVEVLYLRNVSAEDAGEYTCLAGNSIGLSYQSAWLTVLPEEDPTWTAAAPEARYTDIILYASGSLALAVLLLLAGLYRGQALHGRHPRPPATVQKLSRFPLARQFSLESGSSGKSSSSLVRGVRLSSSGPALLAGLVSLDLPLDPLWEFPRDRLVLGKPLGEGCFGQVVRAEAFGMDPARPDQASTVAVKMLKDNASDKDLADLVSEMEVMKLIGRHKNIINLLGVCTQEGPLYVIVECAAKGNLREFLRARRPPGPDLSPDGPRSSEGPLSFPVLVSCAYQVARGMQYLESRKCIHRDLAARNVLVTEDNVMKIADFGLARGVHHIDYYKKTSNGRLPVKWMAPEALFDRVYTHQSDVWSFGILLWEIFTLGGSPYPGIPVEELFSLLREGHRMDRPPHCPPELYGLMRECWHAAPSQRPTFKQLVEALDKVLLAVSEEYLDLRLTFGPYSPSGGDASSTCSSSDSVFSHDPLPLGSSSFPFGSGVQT
Description: Inhibition of FGFR4 (unknown origin) at 100 nM incubated for 15 mins in presence of ATP relative to control
The target of series [17] is T1, Fibroblast growth factor receptor 1. The note with it: dose 100.0 nM.
Target sequence in this assay (P11362 22-822 limits assumed): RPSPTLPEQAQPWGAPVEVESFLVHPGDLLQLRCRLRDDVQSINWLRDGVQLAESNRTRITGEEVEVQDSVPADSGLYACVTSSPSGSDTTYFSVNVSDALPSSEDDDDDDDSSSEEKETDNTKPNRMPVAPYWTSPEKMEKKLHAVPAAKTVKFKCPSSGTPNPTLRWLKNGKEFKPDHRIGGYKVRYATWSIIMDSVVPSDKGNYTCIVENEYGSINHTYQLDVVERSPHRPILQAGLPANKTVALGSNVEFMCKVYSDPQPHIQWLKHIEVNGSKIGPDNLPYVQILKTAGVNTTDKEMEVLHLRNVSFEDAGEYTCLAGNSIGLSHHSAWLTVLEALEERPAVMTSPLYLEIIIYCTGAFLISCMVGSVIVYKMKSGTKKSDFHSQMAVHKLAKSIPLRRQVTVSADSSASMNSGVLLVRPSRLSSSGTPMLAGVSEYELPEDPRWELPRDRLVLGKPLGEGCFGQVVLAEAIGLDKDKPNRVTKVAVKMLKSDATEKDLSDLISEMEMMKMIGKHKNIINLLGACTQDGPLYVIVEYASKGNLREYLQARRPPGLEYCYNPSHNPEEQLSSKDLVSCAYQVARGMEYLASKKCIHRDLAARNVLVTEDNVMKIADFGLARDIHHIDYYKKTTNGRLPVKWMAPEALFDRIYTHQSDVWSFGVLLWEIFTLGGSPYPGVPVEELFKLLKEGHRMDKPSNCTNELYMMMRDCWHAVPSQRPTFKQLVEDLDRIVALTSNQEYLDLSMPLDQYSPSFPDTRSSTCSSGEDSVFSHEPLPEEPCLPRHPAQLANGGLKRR
Description: Inhibition of FGFR1 (unknown origin) at 100 nM incubated for 15 mins in presence of ATP relative to control
The target is the same in series [18]. The note with it: dose 10.0 nM.
Target sequence in this assay (P11362 22-822 limits assumed): as above
Description: Inhibition of FGFR1 (unknown origin) at 10 nM incubated for 15 mins in presence of ATP relative to control
The target in series [19] is Fibroblast growth factor receptor 4 (Homo sapiens) (UniProt P22455). The note with it: dose 10.0 nM.
Description: Inhibition of FGFR4 (unknown origin) at 10 nM incubated for 15 mins in presence of ATP relative to control

For `Cc1ccc(C(=O)Nc2ccc(CN3CCN(C)CC3)c(C(F)(F)F)c2)cc1C#Cc1cnc2cccnn12` [PONATINIB], the Activity in series [1] was determined as 5.14%; in [4], 3.28%; in series [5] it was 6.56%; in series [6] it was 2.74%; in series [7], 20.3%; in series [9], 18.5%. In addition, the viability at 0.5 µM in series [2] was determined as 68%; in [8] it was 75.5%. For the same molecule, in series [3], the IC50 (as a rule, the concentration that gives 50% inhibition) at 72 h came to 0.18 µM.
`C=CC(=O)Nc1cccc(C)c1Nc1ccc(C#Cc2cc(C(=O)Nc3ccc(CN4CCN(C)CC4)c(C(F)(F)F)c3)ccc2C)cn1`: the IC50 in series [10] was > 500 nM; in series [11], 520 nM; in series [12] it was 3.53 µM; in series [13], 660 nM. Also, the IC50 at 72 h in series [3] was > 10 µM.
For `C=CC(=O)Nc1cccc(C)c1Nc1ncc2cc(-c3c(Cl)c(OC)cc(OC)c3Cl)ccc2n1`, the IC50 in [10] turned out to be 559 nM; in [11], 490 nM; in [12], 4.26 µM; in series [13] it was 810 nM. Also, the half-life (usually the time needed for the level to fall by half in the phase considered) at 1 µM in [14] amounted to 60.1 min. The IC50 at 72 h in [3] is > 10 µM. Further, the inhibition in vivo at 25 mg/kg in series [15] amounted to 61.8%.
In the case of `CC(C)=CC(=O)Nc1cccc(C)c1Nc1ncc(C#Cc2cccc(C(=O)Nc3ccc(CN4CCN(C)CC4)c(C(F)(F)F)c3)c2)cn1`, the inhibition (commonly how much of the control response was suppressed) in series [16] was < 10%.
Turning to `C=CC(=O)Nc1cccc(Cl)c1Nc1ncc(C#Cc2cc(C(=O)Nc3ccc(CN4CCN(C)CC4)c(C(F)(F)F)c3)ccc2C)cn1`, the IC50 in series [10] was > 500 nM; in series [11], 410 nM; in series [12], 4.01 µM; in series [13] it was 870 nM. In addition, in [3], the IC50 at 72 h was > 10 µM.
Regarding `C=CC(=O)Nc1cccc(C)c1Nc1ncc(C#Cc2cc(C(=O)Nc3ccc(CN4CCN(C)CC4)c(C(F)(F)F)c3)ccc2C)cn1`, in series [3], the IC50 at 72 h was > 10 µM. Moreover, the IC50 came out at 1630 nM in series [11], 4.33 µM in [12] and 430 nM in [13].
`Cc1ccc(C(=O)Nc2ccc(CN3CCN(C)CC3)c(C(F)(F)F)c2)cc1C#Cc1cnc(Nc2c(C)cccc2NC(=O)CCl)nc1`: in [17], the inhibition entry was “inactive”. The same molecule showed an inhibition in series [18] of 0.2%.
In the case of `C/C=C/C(=O)Nc1cccc(C)c1Nc1ncc(C#Cc2cc(C(=O)Nc3ccc(CN4CCN(C)CC4)c(C(F)(F)F)c3)ccc2C)cn1`, the inhibition result in series [17] and in series [18] was “inactive” in each case.
Take `C=CC(=O)Nc1cccc(C)c1Nc1ncc(C#Cc2ccc(C)c(C(=O)Nc3ccc(CN4CCN(C)CC4)c(C(F)(F)F)c3)c2)cn1`: in [17], the inhibition result was “inactive”. For the same molecule, in [18], the inhibition stood at 0.3%.
In the case of `C=CC(=O)Nc1ccccc1Nc1ncc(C#Cc2cc(C(=O)Nc3ccc(CN4CCN(C)CC4)c(C(F)(F)F)c3)ccc2C)cn1`, the IC50 at 72 h in series [3] is > 10 µM. Moreover, the results for the IC50 in [11], in [12] and in [13] were 680 nM, 2.24 µM and 770 nM, respectively.
In the case of `Cc1ccc(C(=O)Nc2ccc(C(=O)N3CCN(C)CC3)c(C)c2)cc1C#Cc1cnc(Nc2c(C)cccc2NC(=O)/C=C/CN(C)C)nc1`, the inhibition entry in series [19], in series [17] and in series [16] was “inactive” throughout. The inhibition in [18] was found to be 0.6%.
In the case of `CN(C)C/C=C/C(=O)Nc1cc2c(Nc3ccc(F)c(Cl)c3)ncnc2cc1O[C@H]1CCOC1` [AFATINIB], the half-life at 1 µM in series [14] was found to be 30.1 min.
`Cc1ccc(C(=O)Nc2ccc(C(=O)N3CCN(C)CC3)c(C(F)(F)F)c2)cc1C#Cc1cnc(Nc2c(C)cccc2NC(=O)/C=C/CN(C)C)nc1`: the inhibition entry in series [19], in [17] and in [16] was “inactive” each time. Further, the inhibition in [18] was found to be 2.2%.
Turning to `Cc1ccc(C(=O)Nc2ccc(CN3CCN(C)CC3)c(C(F)(F)F)c2)cc1C#Cc1cnc(Nc2c(C)cccc2NC(=O)/C=C/CN(C)C)nc1`, the IC50 in series [10] is 863 nM; in series [11] it was 1620 nM; in [12], 1.25 µM; in series [13], 920 nM. The IC50 at 72 h in series [3] is > 10 µM.
